“Also recorded” adds a separate entry of the source. Like-named read-outs stand apart in the source and are kept apart here.
Legend:
human adipocytes [1] = test: Oxygen consumption rate in human adipocytes, Seahorse XF24; format: cell-based; settings: treated for 7d
Description: Referring to FIG. 3, oxygen consumption rate in human adipocytes after Naringenin treatment. Cells were treated for 7d and OCR was measured using a Seahorse XF24. Rosiglitizone and GW7647 (activators of PPARγ and PPARα) were included as positive controls.

[2] = cited from earlier work
ovariectomized mice = settings: cited from earlier work
[3] = Eight-week case study of naringenin 150 mg three times daily in a subject with diabetes; format: in vivo, human
Description: A subject was recruited. […] The subject met the inclusion criteria of fasting blood glucose between 126 and 200 mg/dL. They had been prescribed metformin but had discontinued the medication due to gastrointestinal intolerance. Exclusion criteria consisted of known allergy to citrus fruit. The study was approved by the Pennington Biomedical Research Center (PBRC) Institutional Review Board. The participant provided written informed consent. Procedures were in accordance with PBRC's ethical standards. We conducted an eight-week case study. The subject completed three visits to the clinic. Visits were performed in the morning after an overnight fast for at least eight hours where only water was permitted. At the baseline visit, upon arrival, weight and vital signs (blood pressure and heart rate) were measured. […] Blood was collected for a chemistry panel (glucose, insulin, creatinine, potassium, uric acid, albumin, calcium, magnesium, creatine phosphokinase, alanine aminotransferase, alkaline phosphatase, iron, total cholesterol high density lipoprotein cholesterol [HDL-C], low density lipoprotein cholesterol [LDL-C], and triglycerides) and a complete blood count (CBC). Resting metabolic rate (RMR) was measured over five hours at baseline and at the end of eight weeks using the ventilated hood to collect expirated gases. The test required the subject to lie quietly in bed after ingesting a capsule containing 150 mg naringenin. To evaluate the subject's metabolic rate, oxygen consumed and the carbon dioxide given off were measured during the last thirty minutes of each hour. Following the baseline testing, the subject was given 100 capsules each containing 150 mg naringenin with instructions to take one orally three times daily. At weeks two and six, the subject received a phone call from the study coordinator and was asked about their progress and compliance. Changes in medications and adverse events were also evaluated. They were encouraged to comply with the study protocol. At week four, the subject returned to the clinic and their weight, blood pressure, and heart rate were measured. Any remaining capsules were collected and compliance was assessed. Naringenin (100 capsules) for the next four weeks was dispensed. Week eight marked the subject's last visit and involved repeating the baseline testing. At this visit, the subject returned any remaining capsules, and compliance was assessed. Whole sweet oranges (Citrus Sinensis) were subjected to an aqueous and ethanolic extraction process, dried, milled, and provided in a powder form by Green Chem/Gencor Lifestage Solutions (Irvine, Calif.). The quantification of naringenin in the extract, and the safety and pharmacokinetics of the extract in humans are previously described.^15 The extract contained 28% naringenin. Therefore each capsule prepared by the PBRC pharmacist contained 536 mg of the extract.

PPARγ = molecular target: T1, PPARγ (Homo sapiens, UniProt P37231); settings: reporter gene assays; cited from earlier work
T1 sequence (P37231 1-505): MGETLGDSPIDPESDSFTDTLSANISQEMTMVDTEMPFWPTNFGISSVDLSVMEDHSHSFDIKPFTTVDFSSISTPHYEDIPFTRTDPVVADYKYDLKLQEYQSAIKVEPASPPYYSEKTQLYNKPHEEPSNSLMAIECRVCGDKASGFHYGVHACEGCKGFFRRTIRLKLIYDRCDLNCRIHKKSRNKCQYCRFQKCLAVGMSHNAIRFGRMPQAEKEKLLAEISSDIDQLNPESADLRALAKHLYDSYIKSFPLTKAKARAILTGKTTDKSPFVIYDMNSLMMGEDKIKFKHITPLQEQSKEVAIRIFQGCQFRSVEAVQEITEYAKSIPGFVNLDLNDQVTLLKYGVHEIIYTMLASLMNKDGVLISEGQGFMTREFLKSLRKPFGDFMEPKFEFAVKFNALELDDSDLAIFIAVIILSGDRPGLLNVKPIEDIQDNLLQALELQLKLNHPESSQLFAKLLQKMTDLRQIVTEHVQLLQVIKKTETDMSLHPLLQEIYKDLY

human adipocytes [4] = test: qRT-PCR in human adipocytes (hADSC) treated two days with naringenin and inhibitors; format: cell-based; settings: for CPT1β mRNA expression compared to control / UCP1 mRNA expression compared to control: naringenin 30 μM (whole orange extract), two days
Description: Human white adipocytes were treated for 2d with naringenin in the presence of inhibitors of metabolic pathways to determine the mechanism of action for stimulating fat oxidation and thermogenic energy expenditure.
Naringenin increased UCP1 and CPT1β mRNA induction compared to control (p<0.001). PPARα and PPARγ inhibition reduced UCP1 and CPT1β mRNA expression (p<0.001). Each experiment was conducted with three biological replicates and four technical replicates.
The whole orange extract was dissolved in DMSO at 15 mM (based on 28% naringenin content) and added to cells at a dilution of 1:500 to achieve a final concentration of 30 μM. The inhibitors added to the naringenin-treated cells included: peroxisome proliferator-activated receptor alpha (PPARα) antagonist GW6471 and peroxisome proliferator-activated receptor gamma (PPARγ) antagonist GW9662 (Cayman Chemical, Ann Arbor, Mich.) at 10 μM concentration, protein kinase A (PKA) inhibitor H89 (Millipore Sigma, Burlington, Mass.) at 20 μM concentration, and protein kinase G (PKG) inhibitor […] (Biolog Life Science Institute, AXXORA, LLC, Farmingdale, N.Y.) at 50 μM concentration. GW6471 and GW9662 were dissolved in DMSO at 1000×, H89 was dissolved in PBS at 500×, and Rp-8-pCPT-cGMPS was dissolved in PBS at 100× prior to dilution in cell culture medium. Following a two-day treatment, the cells were harvested with Trizol reagent. RNeasy Mini Kit (Qiagen, Germantown, Md.) was used to isolate total RNA following manufacturer's protocol. The expression of UCP1, CPT1β, and GLUT4 was quantified with one-step reverse transcriptase PCR using the reverse PCR primer to prime cDNA synthesis as previously described.^6

cytochrome P450 enzymes = settings: in vivo studies in humans; cited from earlier work

O=C1C[C@@H](c2ccc(O)cc2)Oc2cc(O)cc(O)c21 [naringenin]
oxygen consumption rate: basal and maximal energy expenditure (human adipocytes [1]): significantly increases basal and maximal energy expenditure
oxygen consumption rate: basal and maximal energy expenditure (human adipocytes [1]; listed as Naringenin): increase in oxygen consumption
serum concentrations of naringenin ([2]; after orange juice and fruit): < 1 μm
presence in serum ([2]; lowest dose of 150 mg): present in serum at concentrations sufficient to elicit a physiologic response
physiologically attainable concentration ([2]; pharmacokinetic studies in humans): 10 μM
adverse events ([2]; single ascending dose trial of whole orange extract): no adverse events were observed at any dose
weight gain, glucose metabolism and muscle function (ovariectomized mice; ovariectomized mice fed a high fat diet): reversed the weight gain and improved glucose metabolism and muscle function
fasting glucose, insulin (and cholesterol) levels (ovariectomized mice; ovariectomized mice): improved fasting glucose, insulin and cholesterol levels
weight gain caused by ovariectomy (ovariectomized mice; ovariectomized mice): prevented the weight gain
loss of body weight ([3]; 150 mg three times a day, in 8 weeks): 2.3%
reduction in HOMA-IR ([3]; absolute, eight weeks vs baseline): 0.6
maximal respiratory quotient increase above baseline ([3]; at one hour): 1.2%
RMR peak above baseline ([3]; at one hour, after eight weeks): 3.5%
triglycerides after eight weeks ([3]; baseline 53 mg/dL): 70 mg/day
HOMA-IR at the end of the study ([3]; baseline 3.4): 2.8
Low density lipoprotein cholesterol decrease ([3]; calculated with the Friedewald equation): 10.3 mg/dL
adverse events ([3]; eight weeks): No adverse events were reported
blood safety markers ([3]; eight weeks): within their reference ranges; also recorded: no clinically significant changes
change in respiratory quotient ([3]; eight weeks): no change; also recorded: did not change
HOMA-IR reduction ([3]; eight weeks vs baseline): 17.6%
change in glucose ([3]; eight weeks vs baseline): not clinically significant
triglycerides increase ([3]; eight weeks vs baseline 53 mg/dL): 32%
loss of body weight at the 6 month plateau ([3]; extrapolated from 8 weeks): 4.6%
Body weight decrease ([3]; over eight weeks, vs baseline): 2.3 kg
activation of PPARγ (PPARγ): Direct activation
CPT1β mRNA expression compared to control (human adipocytes [4]): more than three-fold
UCP1 mRNA expression compared to control (human adipocytes [4]): more than three-fold
CPT1β mRNA expression compared to control (human adipocytes [4]; listed as Naringenin): increased
UCP1 mRNA expression compared to control (human adipocytes [4]; listed as Naringenin): increased
GLUT4 mRNA expression (human adipocytes [4]; naringenin, two-day period): no increase
inhibition of cytochrome P450 enzymes (cytochrome P450 enzymes): not the main inhibitory compound in grapefruit

Reference: US20210260022A1, “SYNERGY FOR INCREASING ENERGY EXPENDITURE AND INSULIN SENSITIVITY” (The Board of Supervisors of Louisiana State University and …, priority 2018, published 2021)
